Measurements as given in PubChem BioAssay (NCI).
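The compound was tested at five concentrations on cells cultured in 96-well plates, with a 48-hour exposure period. TGI: concentration producing complete growth inhibition.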

How the values were obtained:
Experiment in all cases: inhibition of tumour cell growth, NCI panel, 48 h
786-0 renal = test system: 786-0 renal
A498 renal = test system: A498 renal
A549 NSCLC = test system: A549 NSCLC
ACHN renal = test system: ACHN renal
BT-549 breast = test system: BT-549 breast
CAKI-1 renal = test system: CAKI-1 renal
CCRF-CEM leukemia = test system: CCRF-CEM leukemia
COLO 205 colon = test system: COLO 205 colon
DU-145 prostate = test system: DU-145 prostate
EKVX NSCLC = test system: EKVX NSCLC
HCT-116 colon = test system: HCT-116 colon
HCT-15 colon = test system: HCT-15 colon
HL-60(TB) leukemia = test system: HL-60(TB) leukemia
HOP-62 NSCLC = test system: HOP-62 NSCLC
HOP-92 NSCLC = test system: HOP-92 NSCLC
HS 578T breast = test system: HS 578T breast
HT29 colon = test system: HT29 colon
IGROV1 ovarian = test system: IGROV1 ovarian
K-562 leukemia = test system: K-562 leukemia
KM12 colon = test system: KM12 colon
LOX IMVI melanoma = test system: LOX IMVI melanoma
M14 melanoma = test system: M14 melanoma
MALME-3M melanoma = test system: MALME-3M melanoma
MCF7 breast = test system: MCF7 breast
MDA-MB-231 breast = test system: MDA-MB-231 breast
MDA-MB-435 = test system: MDA-MB-435
MDA-N = test system: MDA-N
MOLT-4 leukemia = test system: MOLT-4 leukemia
NCI-H23 lung = test system: NCI-H23 lung
NCI-H460 lung = test system: NCI-H460 lung
NCI-H522 lung = test system: NCI-H522 lung
NCI/ADR-RES ovarian = test system: NCI/ADR-RES ovarian
OVCAR-3 ovarian = test system: OVCAR-3 ovarian
OVCAR-4 ovarian = test system: OVCAR-4 ovarian
OVCAR-5 ovarian = test system: OVCAR-5 ovarian
OVCAR-8 ovarian = test system: OVCAR-8 ovarian
PC-3 prostate = test system: PC-3 prostate
RPMI-8226 leukemia = test system: RPMI-8226 leukemia
RXF 393 renal = test system: RXF 393 renal
SF-268 CNS = test system: SF-268 CNS
SF-295 CNS = test system: SF-295 CNS
SF-539 CNS = test system: SF-539 CNS
SK-MEL-2 melanoma = test system: SK-MEL-2 melanoma
SK-MEL-28 melanoma = test system: SK-MEL-28 melanoma
SK-MEL-5 melanoma = test system: SK-MEL-5 melanoma
SK-OV-3 ovarian = test system: SK-OV-3 ovarian
SN12C renal = test system: SN12C renal
SNB-19 CNS = test system: SNB-19 CNS
SNB-75 CNS = test system: SNB-75 CNS
SR leukemia = test system: SR leukemia
SW-620 colon = test system: SW-620 colon
T-47D breast = test system: T-47D breast
TK-10 renal = test system: TK-10 renal
U251 CNS = test system: U251 CNS
UACC-257 melanoma = test system: UACC-257 melanoma
UACC-62 melanoma = test system: UACC-62 melanoma
UO-31 renal = test system: UO-31 renal

`O=C(c1cccc(F)c1F)N1CCc2c([nH]c3ccccc23)C1c1ccc2c(c1)OCO2` (stereo not drawn) showed a TGI (786-0 renal) of over 100 µM, a TGI (A498 renal) of over 100 µM and a TGI (A549 NSCLC) of 72.5 µM. The TGI (ACHN renal) was over 100 µM, the TGI (BT-549 breast) was over 100 µM and the TGI (CAKI-1 renal) was 87.2 µM. It also gave a TGI (CCRF-CEM leukemia) of over 100 µM, a TGI (COLO 205 colon) of 12.9 µM and a TGI (DU-145 prostate) of over 100 µM. For the same compound, the TGI (EKVX NSCLC) was 65.3 µM, the TGI (HCT-116 colon) was over 100 µM and the TGI (HCT-15 colon) was over 100 µM. It also gave a TGI (HL-60(TB) leukemia) of 18.7 µM, a TGI (HOP-62 NSCLC) of 2.83 µM and a TGI (HOP-92 NSCLC) of over 100 µM. It also gave a TGI (HS 578T breast) of over 100 µM, a TGI (HT29 colon) of over 100 µM and a TGI (IGROV1 ovarian) of over 100 µM. It also gave a TGI (K-562 leukemia) of over 100 µM, a TGI (KM12 colon) of 32.7 µM and a TGI (LOX IMVI melanoma) of over 100 µM. The TGI (M14 melanoma) was 18.4 µM, the TGI (MALME-3M melanoma) was over 100 µM and the TGI (MCF7 breast) was 57.4 µM. The TGI (MDA-MB-231 breast) was 74.5 µM, the TGI (MDA-MB-435) was 6.09 µM and the TGI (MDA-N) was 7.01 µM. For the same compound, the TGI (MOLT-4 leukemia) was over 100 µM, the TGI (NCI-H23 lung) was over 100 µM and the TGI (NCI-H460 lung) was 29.9 µM. It also gave a TGI (NCI-H522 lung) of 60.2 µM, a TGI (NCI/ADR-RES ovarian) of 53 µM and a TGI (OVCAR-3 ovarian) of 5.26 µM. For the same compound, the TGI (OVCAR-4 ovarian) was 67.8 µM, the TGI (OVCAR-5 ovarian) was over 100 µM and the TGI (OVCAR-8 ovarian) was over 100 µM. The TGI (PC-3 prostate) was 39.2 µM, the TGI (RPMI-8226 leukemia) was 48.1 µM and the TGI (RXF 393 renal) was 35.4 µM. The TGI (SF-268 CNS) was over 100 µM, the TGI (SF-295 CNS) was 26.3 µM and the TGI (SF-539 CNS) was 21.4 µM. It also gave a TGI (SK-MEL-2 melanoma) of 16.5 µM, a TGI (SK-MEL-28 melanoma) of over 100 µM and a TGI (SK-MEL-5 melanoma) of 13.4 µM. The TGI (SK-OV-3 ovarian) was 51.9 µM, the TGI (SN12C renal) was 91.1 µM and the TGI (SNB-19 CNS) was 61.4 µM. It also gave a TGI (SNB-75 CNS) of 22.2 µM, a TGI (SR leukemia) of 21.3 µM and a TGI (SW-620 colon) of over 100 µM. For the same compound, the TGI (T-47D breast) was over 100 µM, the TGI (TK-10 renal) was over 100 µM and the TGI (U251 CNS) was over 100 µM. The TGI (UACC-257 melanoma) was 60.4 µM, the TGI (UACC-62 melanoma) was 48.8 µM and the TGI (UO-31 renal) was 47.7 µM.
`COc1cc(O)cc2oc(-c3ccc(O)cc3)cc(=O)c12` showed a TGI (786-0 renal) of over 100 µM, a TGI (A498 renal) of 78.3 µM and a TGI (A549 NSCLC) of over 100 µM. The TGI (ACHN renal) was over 100 µM, the TGI (BT-549 breast) was over 100 µM and the TGI (CAKI-1 renal) was over 100 µM. For the same compound, the TGI (CCRF-CEM leukemia) was over 100 µM, the TGI (COLO 205 colon) was over 100 µM and the TGI (DU-145 prostate) was over 100 µM. For the same compound, the TGI (EKVX NSCLC) was over 100 µM, the TGI (HCT-116 colon) was over 100 µM and the TGI (HCT-15 colon) was over 100 µM. For the same compound, the TGI (HL-60(TB) leukemia) was over 100 µM, the TGI (HOP-62 NSCLC) was over 100 µM and the TGI (HOP-92 NSCLC) was over 100 µM. For the same compound, the TGI (HS 578T breast) was over 100 µM, the TGI (HT29 colon) was over 100 µM and the TGI (IGROV1 ovarian) was over 100 µM. For the same compound, the TGI (K-562 leukemia) was over 100 µM, the TGI (KM12 colon) was over 100 µM and the TGI (LOX IMVI melanoma) was over 100 µM. The TGI (M14 melanoma) was over 100 µM, the TGI (MALME-3M melanoma) was over 100 µM and the TGI (MCF7 breast) was over 100 µM. It also gave a TGI (MDA-MB-231 breast) of over 100 µM, a TGI (MDA-MB-435) of over 100 µM and a TGI (MDA-N) of over 100 µM. It also gave a TGI (MOLT-4 leukemia) of over 100 µM, a TGI (NCI-H23 lung) of over 100 µM and a TGI (NCI-H460 lung) of over 100 µM. For the same compound, the TGI (NCI-H522 lung) was over 100 µM, the TGI (NCI/ADR-RES ovarian) was over 100 µM and the TGI (OVCAR-3 ovarian) was over 100 µM. The TGI (OVCAR-5 ovarian) was over 100 µM, the TGI (OVCAR-8 ovarian) was over 100 µM and the TGI (PC-3 prostate) was over 100 µM. For the same compound, the TGI (RPMI-8226 leukemia) was over 100 µM, the TGI (RXF 393 renal) was over 100 µM and the TGI (SF-268 CNS) was over 100 µM. It also gave a TGI (SF-295 CNS) of over 100 µM, a TGI (SF-539 CNS) of over 100 µM and a TGI (SK-MEL-2 melanoma) of over 100 µM. The TGI (SK-MEL-28 melanoma) was over 100 µM, the TGI (SK-MEL-5 melanoma) was over 100 µM and the TGI (SK-OV-3 ovarian) was over 100 µM. The TGI (SN12C renal) was over 100 µM, the TGI (SNB-19 CNS) was over 100 µM and the TGI (SNB-75 CNS) was 62.7 µM. The TGI (SR leukemia) was over 100 µM, the TGI (SW-620 colon) was over 100 µM and the TGI (T-47D breast) was over 100 µM. The TGI (TK-10 renal) was over 100 µM, the TGI (U251 CNS) was over 100 µM and the TGI (UACC-257 melanoma) was over 100 µM. It also gave a TGI (UACC-62 melanoma) of over 100 µM and a TGI (UO-31 renal) of over 100 µM.
